Measurements taken from the NIST ThermoML archive (doi:10.1016/j.jct.2008.01.024).

What was measured:
[1] = Liquid; for mass density: 298.15 K, 101.33 kPa; for vapor or sublimation pressure: Ebulliometric method (Recirculating still)
[2] = excess molar enthalpy (molar enthalpy of mixing); xn = mol fraction of the nth substance listed; settings: 101 kPa, Liquid, Flow calorimetry

ClCCCl [1,2-dichloroethane]
Settings | mass density [kg/m3]
[1] | 1245.6

Settings | vapor or sublimation pressure [kPa]
[1], 313.15 K | 20.75

ClCCCl [1,2-dichloroethane] + CN1CCCC1=O
excess molar enthalpy [kJ/mol], [2]
Settings | 298.15 K | 308.15 K
x2 = 0.057 | -0.228 | –
x2 = 0.058 | – | -0.242
x2 = 0.105 | -0.466 | –
x2 = 0.107 | – | -0.474
x2 = 0.203 | -0.827 | –
x2 = 0.207 | – | -0.844
x2 = 0.301 | -1.098 | –
x2 = 0.307 | – | -1.113
x2 = 0.4 | -1.234 | –
x2 = 0.407 | – | -1.249
x2 = 0.5 | -1.264 | –
x2 = 0.507 | – | -1.273
x2 = 0.601 | -1.182 | –
x2 = 0.607 | – | -1.187
x2 = 0.702 | -0.994 | –
x2 = 0.708 | – | -0.994
x2 = 0.805 | -0.732 | –
x2 = 0.808 | – | -0.73
x2 = 0.909 | -0.391 | -0.388
x2 = 0.95 | – | -0.219
x2 = 0.961 | -0.181 | –
x2 = 0.97 | – | -0.144

ClCCCCCl [1,4-dichlorobutane]
Settings | mass density [kg/m3]
[1] | 1133.63

Settings | vapor or sublimation pressure [kPa]
[1], 323.15 K | 2.205

ClCCCCCl [1,4-dichlorobutane] + CN1CCCC1=O
[2]
Settings | excess molar enthalpy [kJ/mol]
298.15 K, x2 = 0.064 | -0.126
298.15 K, x2 = 0.113 | -0.224
298.15 K, x2 = 0.21 | -0.406
298.15 K, x2 = 0.308 | -0.548
298.15 K, x2 = 0.406 | -0.638
298.15 K, x2 = 0.505 | -0.678
298.15 K, x2 = 0.604 | -0.663
298.15 K, x2 = 0.703 | -0.583
298.15 K, x2 = 0.803 | -0.449
298.15 K, x2 = 0.903 | -0.253
298.15 K, x2 = 0.954 | -0.134
308.15 K, x2 = 0.06 | -0.117
308.15 K, x2 = 0.109 | -0.219
308.15 K, x2 = 0.207 | -0.394
308.15 K, x2 = 0.305 | -0.525
308.15 K, x2 = 0.403 | -0.615
308.15 K, x2 = 0.501 | -0.653
308.15 K, x2 = 0.599 | -0.636
308.15 K, x2 = 0.698 | -0.563
308.15 K, x2 = 0.797 | -0.431
308.15 K, x2 = 0.895 | -0.245
308.15 K, x2 = 0.945 | -0.123
308.15 K, x2 = 0.964 | -0.079

ClCCCCCCCl [1,6-dichlorohexane]
Settings | mass density [kg/m3]
[1] | 1063.7

ClCCCCCCCl [1,6-dichlorohexane] + CN1CCCC1=O
excess molar enthalpy [kJ/mol], [2]
Settings | 298.15 K | 308.15 K
x2 = 0.041 | – | -0.023
x2 = 0.06 | – | -0.033
x2 = 0.068 | -0.045 | –
x2 = 0.109 | – | -0.062
x2 = 0.116 | -0.08 | –
x2 = 0.207 | – | -0.102
x2 = 0.212 | -0.13 | –
x2 = 0.305 | – | -0.136
x2 = 0.309 | -0.169 | –
x2 = 0.403 | – | -0.155
x2 = 0.405 | -0.191 | –
x2 = 0.502 | – | -0.162
x2 = 0.503 | -0.2 | –
x2 = 0.6 | -0.191 | -0.152
x2 = 0.699 | -0.165 | -0.134
x2 = 0.797 | -0.123 | –
x2 = 0.799 | – | -0.101
x2 = 0.896 | -0.065 | –
x2 = 0.898 | – | -0.053
x2 = 0.946 | -0.032 | –
x2 = 0.948 | – | -0.025
x2 = 0.968 | – | -0.014

CCCCCl [1-chlorobutane]
Settings | mass density [kg/m3]
[1] | 880.72

Settings | vapor or sublimation pressure [kPa]
[1], 313.15 K | 25.72

CCCCCl [1-chlorobutane] + CN1CCCC1=O
[2]
Settings | excess molar enthalpy [kJ/mol]
298.15 K, x2 = 0.063 | 0.019
298.15 K, x2 = 0.113 | 0.041
298.15 K, x2 = 0.213 | 0.081
298.15 K, x2 = 0.312 | 0.113
298.15 K, x2 = 0.411 | 0.137
298.15 K, x2 = 0.51 | 0.152
298.15 K, x2 = 0.608 | 0.155
298.15 K, x2 = 0.706 | 0.145
298.15 K, x2 = 0.804 | 0.119
298.15 K, x2 = 0.901 | 0.07
298.15 K, x2 = 0.949 | 0.038
308.15 K, x2 = 0.06 | 0.034
308.15 K, x2 = 0.11 | 0.064
308.15 K, x2 = 0.208 | 0.115
308.15 K, x2 = 0.307 | 0.152
308.15 K, x2 = 0.406 | 0.176
308.15 K, x2 = 0.504 | 0.191
308.15 K, x2 = 0.603 | 0.191
308.15 K, x2 = 0.701 | 0.176
308.15 K, x2 = 0.799 | 0.142
308.15 K, x2 = 0.897 | 0.083
308.15 K, x2 = 0.946 | 0.046
308.15 K, x2 = 0.965 | 0.025

CCCCCCCl [1-chlorohexane]
Settings | mass density [kg/m3]
[1] | 873.21

Settings | vapor or sublimation pressure [kPa]
[1], 313.15 K | 2.857

CCCCCCCl [1-chlorohexane] + CN1CCCC1=O
excess molar enthalpy [kJ/mol], [2]
Settings | 298.15 K | 308.15 K
x2 = 0.062 | – | 0.069
x2 = 0.064 | 0.053 | –
x2 = 0.111 | – | 0.146
x2 = 0.113 | 0.12 | –
x2 = 0.208 | – | 0.273
x2 = 0.21 | 0.232 | –
x2 = 0.306 | – | 0.373
x2 = 0.308 | 0.324 | –
x2 = 0.404 | – | 0.437
x2 = 0.406 | 0.382 | –
x2 = 0.502 | – | 0.469
x2 = 0.503 | 0.416 | –
x2 = 0.601 | 0.419 | 0.469
x2 = 0.699 | 0.389 | 0.433
x2 = 0.797 | 0.319 | –
x2 = 0.798 | – | 0.352
x2 = 0.895 | 0.195 | –
x2 = 0.897 | – | 0.212
x2 = 0.944 | 0.111 | –
x2 = 0.947 | – | 0.113
x2 = 0.967 | – | 0.073

CCCCCCCCCl [1-chlorooctane]
Settings | mass density [kg/m3]
[1] | 868.98

CCCCCCCCCl [1-chlorooctane] + CN1CCCC1=O
[2]
Settings | excess molar enthalpy [kJ/mol]
298.15 K, x2 = 0.073 | 0.096
298.15 K, x2 = 0.121 | 0.198
298.15 K, x2 = 0.217 | 0.371
298.15 K, x2 = 0.314 | 0.502
298.15 K, x2 = 0.411 | 0.591
298.15 K, x2 = 0.507 | 0.638
298.15 K, x2 = 0.604 | 0.644
298.15 K, x2 = 0.701 | 0.6
298.15 K, x2 = 0.798 | 0.5
298.15 K, x2 = 0.895 | 0.318
298.15 K, x2 = 0.943 | 0.177
308.15 K, x2 = 0.068 | 0.112
308.15 K, x2 = 0.116 | 0.223
308.15 K, x2 = 0.213 | 0.41
308.15 K, x2 = 0.309 | 0.551
308.15 K, x2 = 0.406 | 0.649
308.15 K, x2 = 0.504 | 0.699
308.15 K, x2 = 0.602 | 0.702
308.15 K, x2 = 0.7 | 0.654
308.15 K, x2 = 0.799 | 0.54
308.15 K, x2 = 0.898 | 0.339
308.15 K, x2 = 0.948 | 0.188
308.15 K, x2 = 0.968 | 0.11

CN1CCCC1=O [N-methylpyrrolidone]
Settings | mass density [kg/m3]
[1] | 1028.55
